Laboratory results taken from article PMC4686663, “Ultrahigh-throughput discovery of promiscuous enzymes by picodroplet functional metagenomics” (Nature Communications, 2015).
Counter-ions that a name gives are not always drawn. Like-named read-outs stand apart in the source and are kept apart here.

Experiments:
P40 = biological target: T1, P40 (uncultured organism, UniProt A0A141FA90); test: sulfate transfer kinetics; type: biochemical; conditions: acceptor phenolate; ping-pong mechanism
T1 construct: ORF p40 recloned in modified pRSFDuet (NcoI-XhoI), E. coli BL21(DE3); no tag stated

P86 = biological target: T2, P86 (uncultured organism, UniProt A0A141FA97); test: 4-nitrophenolate release, […] nm, initial rates; type: biochemical; conditions: 100 mM MOPS-NaOH pH 8.0, 150 mM NaCl, 25 °C
T2 construct: N-terminal Strep-tag, pASKIBA5plus (EcoRI-NcoI), E. coli BL21(DE3); Strep-Tactin and gel filtration

P84 = P84 (uncultured organism, UniProt A0A141FA95); test: 4-nitrophenolate release, […] nm, initial rates; conditions: 100 mM MOPS-NaOH pH 8.0, 150 mM NaCl, 25 °C
P83 = biological target: T3, P83 (uncultured organism, UniProt A0A141FA94); test: 4-nitrophenolate release, […] nm, initial rates; type: biochemical; conditions: 100 mM MOPS-NaOH pH 8.0, 150 mM NaCl, 25 °C
T3 construct: N-terminal Strep-tag, pASKIBA5plus (BsaI), E. coli BL21(DE3); Strep-Tactin and gel filtration

P85 = test system: T4, P85; test: 4-nitrophenolate release, […] nm, initial rates; type: biochemical; conditions: 100 mM MOPS-NaOH pH 8.0, 150 mM NaCl, 25 °C
T4 construct: N-terminal Strep-tag, pASKIBA5plus (BsaI), E. coli BL21(DE3); Strep-Tactin and gel filtration

[1] = substrate: CC(=O)Oc1ccc([N+](=O)[O-])cc1; test: purified protein, by the assay type; parameters: Michaelis-Menten kinetics of substrate hydrolysis by purified enzyme, initial rates by absorbance or fluorescence, plate reader; conditions: 25.0 °C
Procedure: (§1) All enzymatic assays were conducted at 25 °C in a final volume of 200 μl, in the activity buffer (100 mM MOPS-NaOH pH 8.0, containing 150 mM NaCl) that was used throughout the experiments, unless otherwise stated. Measurements were performed in 96-well plate format and product formation followed in SpectraMax M5 or 190 microplate readers. Hydrolysis of substrates with fluorescein leaving groups (1d and 2d) was monitored at the following wavelengths: λexcitation=488 nm and λemission=525 nm. A calibration curve (linearly fit to the equation: fluorescence=1.2 × 10^10 M^−1 [fluorescein]) was used to quantify fluorescein release. Hydrolysis of esters 1, 2a, 2b, 3, 4, 5, 6 and acetamide 9 was monitored by measuring absorbance of p-nitrophenolate at 400 nm (ɛ≈17,700 M^−1 cm^−1). Hydrolysis of thioester 7 was measured in the presence of the indicator 5,5'-dithiobis-(2-nitrobenzoic acid) (500 μM); the increase of 2-nitro-5-thiobenzoate was monitored at 412 nm (ɛ≈13,100 M^−1 cm^−1)[39]. Hydrolysis of lactones 8b, 8c, 8d1, 8d2 was measured using a pH-shift assay in 2.5 mM Bicine, 200 mM NaCl, 0.3 mM cresol purple pH 8.3 (ref. [65]). The pH drop was monitored by the decrease in the absorbance of the indicator dye cresol purple at 577 nm (ɛ≈4,000 M^−1 cm^−1). Hydrolysis of lactone 8a was measured at 270 nm in an ultraviolet-transparent 96-well plate. Hydrolysis of β-lactam 10 was measured at 405 nm in phosphate buffer (100 mM, pH 8.0). All kinetic parameters were calculated by fitting initial rates vo to the Michaelis–Menten equations (or, if saturation could not be reached due to solubility limits, to linear correlations) using Kaleidagraph. Example data and details of equations used for fitting are shown in Supplementary Fig. 14. (b) PTE hits. Applying the screening workflow to PTEs (using triester 2d as substrate) led to the isolation of eight unique and novel sequences, mostly originating from unknown microorganisms (Supplementary Table 2). Only one of these genes (p83) was predicted as a potential PTE by Pfam domain recognition (Fig. 3). […]

[2] = substrate: O=C1CCc2ccccc2O1; test: purified protein, by the assay type; parameters: Michaelis-Menten kinetics of substrate hydrolysis by purified enzyme, initial rates by absorbance or fluorescence, plate reader
Procedure: as §1

T1 sequence (A0A141FA90 entry or part of it): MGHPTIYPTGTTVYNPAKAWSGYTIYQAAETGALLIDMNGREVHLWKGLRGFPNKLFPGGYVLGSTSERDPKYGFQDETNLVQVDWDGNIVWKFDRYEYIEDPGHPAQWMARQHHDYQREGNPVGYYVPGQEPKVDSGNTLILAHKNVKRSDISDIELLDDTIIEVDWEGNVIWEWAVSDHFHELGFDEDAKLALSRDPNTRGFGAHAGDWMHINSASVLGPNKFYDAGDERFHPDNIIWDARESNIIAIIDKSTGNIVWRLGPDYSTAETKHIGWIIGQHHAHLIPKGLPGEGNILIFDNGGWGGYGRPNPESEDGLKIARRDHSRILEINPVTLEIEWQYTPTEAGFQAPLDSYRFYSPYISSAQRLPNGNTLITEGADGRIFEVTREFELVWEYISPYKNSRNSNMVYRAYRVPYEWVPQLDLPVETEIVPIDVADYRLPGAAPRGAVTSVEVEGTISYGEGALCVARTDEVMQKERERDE
Sequence of P84 (A0A141FA95 entry or part of it): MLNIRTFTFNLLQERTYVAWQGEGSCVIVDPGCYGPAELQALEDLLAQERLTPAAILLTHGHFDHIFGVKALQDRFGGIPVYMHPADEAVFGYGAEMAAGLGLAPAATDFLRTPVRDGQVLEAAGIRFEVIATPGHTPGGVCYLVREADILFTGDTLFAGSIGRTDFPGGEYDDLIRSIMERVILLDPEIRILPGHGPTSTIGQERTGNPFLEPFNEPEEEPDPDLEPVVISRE
T2 sequence (A0A141FA97 entry or part of it): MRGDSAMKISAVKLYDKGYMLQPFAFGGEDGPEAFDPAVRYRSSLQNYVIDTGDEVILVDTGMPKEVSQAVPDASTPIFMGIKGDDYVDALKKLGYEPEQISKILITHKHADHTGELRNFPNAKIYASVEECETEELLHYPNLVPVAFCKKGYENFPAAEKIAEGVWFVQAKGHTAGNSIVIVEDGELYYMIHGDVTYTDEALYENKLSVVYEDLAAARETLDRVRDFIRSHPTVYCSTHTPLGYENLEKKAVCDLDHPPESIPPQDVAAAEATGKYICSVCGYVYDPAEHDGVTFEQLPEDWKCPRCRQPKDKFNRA

With `O=[N+]([O-])c1ccc(OS(=O)(=O)O)cc1` [1a, sulfate ester 1a] the sulfate transfer kinetics (P40) was “P40 was shown to catalyse sulfate transfer from sulfate ester 1a to phenolate”.

`CCOP(=O)(OCC)Oc1ccc([N+](=O)[O-])cc1` [2a, paraoxon] showed a Km (P86) of over 5 mM, a Km (P84) of over 5 mM and a Km (P83) of over 5 mM. For the same molecule, the Km (P85) was over 5 mM.

B1: P88.2 (uncultured organism) (protein)
chain: MNLTETLPGDELANAMAARGYPAVEPATTRDRGVGPFRRLVLRGARILDGTGAPPVGPYDIVVEGGRIKEVVLVGVPKMPIKPERRPAPGDHEIDCTGKLVTPGFVDAHVHIGTYYHAPSGPMPSADYVYKLWLAHGITTVREMACMNGVGWTLEQKEAAAANRIAAPKIVAHAYFPAVDEFIKTIYTVEQARKWVRAVKERGVDGLKFFGAPPAIMQAALEEANKLGMRSGCHHAQMSVSKVNALRSAQWGLTSTEHFYGIPEAMFIDRAVQAYPVGYDFMDESLRYNSSSQNFIQAAEPGSAKWQETLEKFLELGHSFVPTLAILEANRDLMRARRADWHDEYTHKTLWTYFQPHRGGHCSHWYRWTTTNEVQWKEHFRRWMRFCNDYKNLGGRVCPGSDAGFTFQLYGFCFIRELEQMQEAGFHPLEIFRAATSESAALLGVDHETGTIEPGKCADLLVHRYDPLDDLKYLYGTGAWRLNDETGKTEWHRGIEYTIKDGVIYDPAELLADVRAIVAESFNEGEDTRPRTRR
notes: N-terminal Strep-tag, pASKIBA5plus (EcoRI-NcoI), E. coli BL21(DE3); Strep-Tactin and gel filtration
For B1, the Km [1] was 2.9 ± 1.2 mM.

B2: P83 (uncultured organism) (protein)
chain: MQINSVLGPVDTADLGFTLIHEHLLIGWAGWQWDSRWEFDRANAMAKAVDLLQELKALGVSTFVDPCPMDIGRDPEFLAEASQRSGMTIIASTGLYHSEMGIPSYFHAMPEEEIAEIFIHDLTEGMGHTGIKAGIIKCATTAGHVTEQEQKTHGAAARAQVATGAPIITHTDENGPMGLAQLDIFESRGASVSKIAIGHSCGNGDIRYLLSVLERGAWLSFDRFGFGLSASDDVRVASLLGLIGLGYADRLMISHDSVSTFLAKPGGWDPAQEPSLANWKPTHIIQNIIPRLKNAGVSQEVIDTITIDNPRRYFEGSAASGNK
notes: N-terminal Strep-tag, pASKIBA5plus (BsaI), E. coli BL21(DE3); Strep-Tactin and gel filtration
With B2 the Km [2] was 2.5 ± 0.4 mM.

B3: P91 (uncultured organism) (protein)
chain: MTARKVDYTDGATRCIGEFHWDEGKSGPRPGVVVFPEAFGLNDHAKERARRLADLGFAALAADMHGDAQVFDAASLSSTIQGYYGDRAHWRRRAQAALDALTAQPEVDGSKVAAIGFCFGGATCLELARTGAPLTAIVTFHGGLLPEMAGDAGRIQSSVLVCHGADDPLVQDETMKAVMDEFRRDKVDWQVLYLGNAVHSFTDPLAGSHGIPGLAYDATAEARSWTAMCNLFSELFG
notes: as for B2
B3 was tested, and the Km ([2]; 25.0 °C) was 7.7 ± 2.5 mM.
